For series [1], the system named is E. faecium (VRE155). Nature of the series: microbe, parasite or virus in culture. The class given is cell-based, Enterococcus faecium. As to conditions: for MIC VRE E155: Supplemental table S7, P8 with varying lipids, broth microdilution; for MIC: Enterococcus faecium, read-out: MIC E. faecium (VRE155). As to the method:
(§1) Section 4 Biological and biochemical experiments
(§2) 4.1 Minimum inhibitory concentration assay
(§3) MIC values were determined by using the broth microdilution method. Peptides were dissolved first in DMSO and diluted with broth so that the final peptide concentration was 1024 µg/ml and the DMSO concentration was 4%. Peptide serial dilutions were made in TSB in a polypropylene 96-wells plate using 50 µl volumes. An overnight culture of the organism of interest was diluted to and OD600 of 0.01 and grown until they reach 0.5. The culture was then diluted to 1 x 10^6 CFU/ml and 50 µl of this suspension was added to each well. The highest concentrations were then 512 µg/ml peptide and 2% DMSO. The plates were incubated at the preferred growth temperature of the organism that was used and 250 rpm. […] When […]
(§4) determining the MICs of the lipidated peptides, the lipopeptides were first dissolved in DMSO and diluted with TSB so that the peptide concentration was 128 µg/ml and the DMSO concentration was 4%. After inoculation the highest peptide concentration evaluated was 64 µg/ml and the DMSO concentration was 2%. A DMSO control was tested for each strain to ensure the DMSO did not affect the growth of the particular strain. […]

The subject of series [2] is M. luteus (NCTC2665). Nature of the series: microbe, parasite or virus in culture. The class given is cell-based, Micrococcus luteus. As to conditions: for MIC: Micrococcus luteus. As for the experimental part: as §1, §2, §3, §4
Series [3] concerns Sheep blood. Nature of the series: Hemolysis assay. The class given is cell-based. As for the experimental part: Sheep blood in Alsever’s solution (2 mL) was diluted with PBS (13 mL) and centrifuged (2,000 RPM, 5 min). The supernatant was discarded and the cells were washed with another 13 mL of PBS and centrifuged. Washing was continued until the supernatant was clear. After the final wash the supernatant was discarded and the packed cells were kept on ice. Serial dilutions of each peptide were made in 50 µl PBS with the highest tested concentration 64 µg/mL in PBS, 2%
DMSO. The packed cells (150 µL) were suspended in PBS (10 mL) and 50 µL of this suspension was added to each well. A well plate column containing 0.1% triton x-100 in DI water was used as the 100% lysis control and a second column with PBS (with 2% DMSO) served as the 0% lysis control. After incubation at 37°C for 1h the plates were centrifuged (2,000 RPM, 5 min) and 25 µL of the supernatant was added to 100 µL DI water in a flat-bottom 96-wells plate (polystyrene). […]

The test system of series [4] is E. faecium (VRE7391). The series can be described thus: microbe, parasite or virus in culture. The settings on record: for MIC: Enterococcus faecium, read-out: MIC E. faecium (VRE7391). The class given is cell-based, Enterococcus faecium. As for the experimental part: as §1, §2, §3, §4
Series [5] deals with E. faecium (VRE0321). Nature of the series: microbe, parasite or virus in culture. In kind it is cell-based, Enterococcus faecium. The settings on record: for MIC: Enterococcus faecium, read-out: MIC E. faecium (VRE0321). As for the experimental part: as §1, §2, §3, §4
For series [6], the system named is E. faecium (VRE2297). Nature of the series: microbe, parasite or virus in culture. The class given is cell-based, Enterococcus faecium. The settings on record: for MIC: Enterococcus faecium, read-out: MIC E. faecium (VRE2297). As for the experimental part: as §1, §2, §3, §4
Series [7] has as its system E. faecium (E980). The series can be described thus: microbe, parasite or virus in culture. The class given is cell-based, Enterococcus faecium. As to conditions: for MIC: Enterococcus faecium, read-out: MIC E. faecium (E980). As to the method: as §1, §2, §3, §4
Series [8] concerns S. pyogenes (5448). Nature of the series: microbe, parasite or virus in culture. In kind it is cell-based. As to conditions: for MIC: Streptococcus pyogenes, read-out: MIC S. pyogenes (5448). As to the method: as §1, §2, §3, §4
The test system of series [9] is B. subtilis (168). The series can be described thus: microbe, parasite or virus in culture. The settings on record: for MIC: Bacillus subtilis, read-out: MIC B. subtilis (168). In kind it is cell-based. As for the experimental part: as §1, §2, §3, §4
In series [10] the test system is S. epidermidis (1587). Nature of the series: microbe, parasite or virus in culture. The settings on record: for MIC: Staphylococcus epidermidis, read-out: MIC S. epidermidis (1587). The class given is cell-based. As to the method:
as §1, §2, §3, §4

The mark [11] stands for this setting: Supplemental table S7, P8 with varying lipids, broth microdilution.
The mark [12] stands for this setting: Supplemental table S9, vancomycin-resistant isolate, MIC values of Table 2 expressed in µM.
Setting [13] is: Table 2, vancomycin-resistant isolate from hospitalized patients, broth microdilution in TSB, 16 h, highest tested 64 µg/ml.
The mark [14] stands for this setting: Supplemental table S9, MIC values of Table 2 expressed in µM.
Setting [15] is: Table 2, broth microdilution in TSB, 16 h, read visually, highest tested 64 µg/ml.
Setting [16] is: Supplemental table S6, lipidated phage display hits, n.a. = not active, highest tested conc 64 µg/ml.

Converted amounts (≈) assume the structure as drawn. Read-outs that look alike come from different tables or passages of the source. *1 amine or outer side, *2 acyl side, *3 side chain or, on linkers, in order; H or OH if unused. Where a SMILES comes first, the peptide text is derived from it. Bridges are numbered along the chain shown (N, C = ends). [ ]: non-standard residue; d: D form. The star is where a group is joined. TBMB = c1c(C[*:1])cc(C[*:3])cc1C[*:2]; NH(CH2)11CH3 = CCCCCCCCCCCCN*; NHDecyl = CCCCCCCCCCN*; NHHex = CCCCCCN*

Turning to `CCCCCCCCCCCCNC(=O)CNC(=O)[C@H]1CSCc2cc3cc(c2)CSC[C@@H](NC(=O)[C@@H](CC(C)C)NC(=O)[C@@H](CC(C)C)NC(=O)[C@@H](CO)NC(=O)[C@@H](CCC(N)=O)NC(=O)[C@@H](CC(C)C)NC(=O)[C@@H](CC(C)C)NC(=O)[C@H](NC(=O)[C@@H](C)N)CSC3)C(=O)N2CCC[C@@H]2C(=O)N[C@H](Cc2ccc(O)cc2)C(=O)N[C@H](CO)C(=O)N[C@H]([C@H](C)O)C(=O)N[C@H](Cc2c[nH]cn2)C(=O)N[C@H](CCCNC(=N)N)C(=O)N1` [Peptide P8-D-C12] (H-[dA][dC][dL][dL][dQ][dS][dL][dL][dC][dP][dY][dS][dT][dH][dR][dC]G-{NH(CH2)11CH3}; linker 2-9-16 via TBMB; N-terminus assumed), the “MIC VRE E155” value in series [1] came out at 8 µg/mL (≈ 3.73 µM). The “MIC M. luteus” value in [2] (setting [11]) fell in the range of 4 to 8 µg/mL. The “Hemolysis 32 µg/ml (after 1 h)” value in series [3] (Supplemental table S7, sheep blood cells in PBS, 32 µg/ml, 1 h at 37°C, absorption at 414 nm) is given as 9%.
`CCCCCCCCCCNC(=O)CNC(=O)[C@H]1CSCc2cc3cc(c2)CSC[C@@H](NC(=O)[C@@H](CC(C)C)NC(=O)[C@@H](CC(C)C)NC(=O)[C@@H](CO)NC(=O)[C@@H](CCC(N)=O)NC(=O)[C@@H](CC(C)C)NC(=O)[C@@H](CC(C)C)NC(=O)[C@H](NC(=O)[C@@H](C)N)CSC3)C(=O)N[C@H](CCCNC(=N)N)C(=O)N[C@H](Cc2ccc(O)cc2)C(=O)N[C@H](CO)C(=O)N[C@H]([C@H](C)O)C(=O)N[C@H](Cc2c[nH]cn2)C(=O)N[C@H](C)C(=O)N1` [P8-D-(P10R, R15A)-C10] (H-[dA][dC][dL][dL][dQ][dS][dL][dL][dC][dR][dY][dS][dT][dH][dA][dC]G-NHDecyl; linker 2-9-16 via TBMB; N-terminus assumed): the “MIC E. faecium (VRE7391)” value in series [4] (setting [12]) is 15.3 µM (≈ 32 µg/mL); in series [4] (setting [13]), 16 μg mL^–1. Also, the “MIC E. faecium (VRE0321)” value in [5] (setting [12]) is reported as 15.3 µM (≈ 32 µg/mL); in series [5] (setting [13]), 16 μg mL^–1. Moreover, the “MIC E. faecium (VRE155)” value in series [1] (setting [12]) is recorded as 7.7 µM (≈ 16.1 µg/mL); in series [1] (setting [13]) it was 8 μg mL^–1. Moreover, the “MIC E. faecium (VRE2297)” value worked out at 30.6 µM (≈ 64 µg/mL) in series [6] (setting [12]) and 32 μg mL^–1 in series [6] (setting [13]). In addition, the “MIC E. faecium (E980)” value in series [7] (setting [14]) came out at 30.6 µM (≈ 64 µg/mL); in [7] (setting [15]), 32 μg mL^–1. The “MIC M. luteus (NCTC2665)” value in series [2] (setting [14]) is reported as 3.8 µM (≈ 7.95 µg/mL); in [2] (Table 2, broth microdilution in TSB, 16 h, read visually, highest tested 64 µg/ml, 2% DMSO) it was 4 μg mL^–1. The compound further yielded a Hemolysis in series [3] (Supplemental table S9, 1 hour incubation at 37 °C, lipopeptides at 32 µg/mL) of 0%. Besides, the figures for the “MIC S. pyogenes (5448)” value in series [8] (setting [14]) and in [8] (setting [15]) were 15.3 µM (≈ 32 µg/mL) and 16 μg mL^–1, respectively. Moreover, the “MIC B. subtilis (168)” value worked out at 7.7 µM (≈ 16.1 µg/mL) in series [9] (setting [14]) and 8 μg mL^–1 in series [9] (setting [15]). For the same compound, the “MIC S. epidermidis (1587)” value is listed as > 61. 2 µM in series [10] (setting [14]) and above 64 μg mL^–1 in [10] (setting [15]).
Turning to `CN[C@H](CC(C)C)C(=O)N[C@H]1C(=O)N[C@@H](CC(N)=O)C(=O)N[C@H]2C(=O)N[C@H]3C(=O)N[C@H](C(=O)N[C@H](C(=O)O)c4cc(O)cc(O)c4-c4cc3ccc4O)[C@H](O)c3ccc(c(Cl)c3)Oc3cc2cc(c3O[C@@H]2O[C@H](CO)[C@@H](O)[C@H](O)[C@H]2O[C@H]2C[C@](C)(N)[C@H](O)[C@H](C)O2)Oc2ccc(cc2Cl)[C@H]1O` [Vancomycin], the MIC is above 64 µg/mL in series [4] (16 h); above 44.2 µM in series [4]; above 64 µg/mL in series [5] (16 h); above 44.2 µM in [5]; 64 µg/mL in series [1] (16 h); 44.2 µM in [1]. Moreover, the MIC in series [6] (16 h) is above 64 µg/mL; in series [6] it was above 44.2 µM; in series [7] (16 h) it was below 1 µg/mL; in [7], below 0.7 µM; in series [2] (NCTC2665, 16 h, read-out: MIC M. luteus (NCTC2665)) it was below 1 µg/mL; in [2] (NCTC2665, read-out: MIC M. luteus (NCTC2665)), below 0.7 µM. Moreover, the MIC was below 1 µg/mL in series [8] (16 h); below 0.7 µM in [8]; below 1 µg/mL in [9] (16 h); below 0.7 µM in series [9]; 2 µg/mL in series [10] (16 h); 1.4 µM in [10].
As for `CCCCCCCCCCNC(=O)CNC(=O)[C@@H]1CSCc2cc3cc(c2)CSC[C@H](NC(=O)[C@H](CC(N)=O)NC(=O)[C@H](Cc2ccccc2)NC(=O)[C@H](CCCCN)NC(=O)[C@H](CCC(N)=O)NC(=O)[C@@H]2CCCN2C(=O)[C@H](CCCNC(=N)N)NC(=O)[C@@H](NC(=O)[C@H](C)N)CSC3)C(=O)N[C@@H]([C@@H](C)CC)C(=O)N[C@@H](CO)C(=O)N[C@@H](C)C(=O)N[C@@H](CC(N)=O)C(=O)N[C@@H]([C@@H](C)CC)C(=O)N[C@@H](CCCNC(=N)N)C(=O)N1` [Peptide P4-C10] (H-ACRPQKFNCISANIRCG-NHDecyl; linker 2-9-16 via TBMB; N-terminus assumed), in series [2] (setting [16]), the “MIC M. luteus” value came out at 8 µg/mL (≈ 3.75 µM). For the same compound, in [9] (setting [16]), the “MIC B. subtilis” value is 8 to 16 µg/mL.
With `CCCCCCNC(=O)CNC(=O)[C@H]1CSCc2cc3cc(c2)CSC[C@@H](NC(=O)[C@@H](CC(C)C)NC(=O)[C@@H](CC(C)C)NC(=O)[C@@H](CO)NC(=O)[C@@H](CCC(N)=O)NC(=O)[C@@H](CC(C)C)NC(=O)[C@@H](CC(C)C)NC(=O)[C@H](NC(=O)[C@@H](C)N)CSC3)C(=O)N2CCC[C@@H]2C(=O)N[C@H](Cc2ccc(O)cc2)C(=O)N[C@H](CO)C(=O)N[C@H]([C@H](C)O)C(=O)N[C@H](Cc2c[nH]cn2)C(=O)N[C@H](CCCNC(=N)N)C(=O)N1` [Peptide P8-D-C6] (H-[dA][dC][dL][dL][dQ][dS][dL][dL][dC][dP][dY][dS][dT][dH][dR][dC]G-NHHex; linker 2-9-16 via TBMB; N-terminus assumed), in series [1], the “MIC VRE E155” value lay within 16 to 32 µg/mL. Besides, the “MIC M. luteus” value in series [2] (setting [11]) came out at 32 µg/mL (≈ 15.5 µM).

Values taken from publication PMC5853558, “De novo identification of lipid II binding lipopeptides with antibacterial activity against vancomycin-resistant bacteria” (Chemical Science, 2017).
